Assay results as given in PubChem BioAssay AID1508603 (National Center for Advancing Translational Sciences (NCATS), 2020).

The molecules below were run on human liver cytosol stability, half-life (assay: NCATS Human Liver Cytosol Stability Profiling). Details: higher = more stable.
Description: Assay submitter (PI): Pranav Shah Ph.D.
NIH Center for Advancing Translational Sciences
Over the last few decades, chemists have become skilled at designing compounds that avoid cytochrome P (CYP) 450 mediated metabolism. Typical screening assays are performed in liver microsomal fractions and it is possible to overlook the contribution of cytosolic enzymes until much later in the drug discovery process. Few data exist on cytosolic enzyme-mediated metabolism and no reliable tools are available to chemists to help design away from such liabilities. In this study, we screened 1450 compounds for liver cytosol-mediated metabolic stability and extracted transformation rules that might help medicinal chemists in optimizing compounds with these liabilities. […] Matched molecular pairs analysis was performed in conjunction with qualitative-structure activity relationship modeling to identify chemical structure transformations affecting cytosolic stability. The transformation rules were prospectively validated on the test set. In addition, selected rules were validated on a diverse chemical library and the resulting pairs were experimentally tested to confirm whether the identified transformations could be generalized. The validation results, comprising nearly 250 library compounds and corresponding half-life data, are made publicly available. The datasets were also used to generate in silico classification models, based on different molecular descriptors and machine learning methods, to predict cytosol-mediated liabilities. To the best of our knowledge, this is the first systematic in silico effort to address cytosolic enzyme-mediated liabilities (Shah 2020).
Shah, P., Siramshetty, V.B., Zakharov, A.V. et al. Predicting liver cytosol stability of small molecules. J Cheminform 12, 21 (2020). https://doi.org/10.1186/s13321-020-00426-7
Compounds are classified as unstable (t 1/2 < 30 min) or stable (t 1/2 > 30 min).
1. Shah, P. et al. An Automated High-Throughput Metabolic Stability Assay Using an Integrated High-Resolution Accurate Mass Method and Automated Data Analysis Software. Drug Metab Dispos 44, 1653-1661 (2016). PMID 27417180

SMILES	half-life
COCCOC1CCN(C(=O)Nc2cccc(F)c2)CC1	> 2 h
N#Cc1ccc(CN2CCC(N3CCNC3=O)CC2)cc1	1.55 h
Cc1noc(-c2cn(C3CCN(C(=O)c4ccccc4)C3)nn2)n1 (stereo not given)	> 2 h
COc1ccc(C(=O)N2CCCOCCNC(=O)CC2)cc1	1.17 h
COc1cccc(-c2c(C(=O)NC3CC3)nc3sccn23)c1	> 2 h
CCOCCOC1CCN(C(=O)Nc2cccc(F)c2)CC1	> 2 h
COc1cccc(CN2CCC3(CC2)OCCN(C)C3=O)c1	> 2 h
COc1cncc(Nc2ncc(-c3cccc(F)c3)c3c2OCC3)c1	1.34 h
COc1ccc(CN2CC[C@@](C)(O)[C@H](N3CCCC3)C2)cc1	> 2 h
COc1ccc(CN2CCC(N3Cc4cccn4C3=O)CC2)cc1	> 2 h
COc1ccc(CN2CCC3(C2)NC(=O)c2ccccc2O3)cc1 (stereo not given)	> 2 h
CC(=O)N1CCC(Cc2ccc(C(=O)O)cc2)CC1	> 2 h
Cc1noc(-c2cn(C3CCN(C(=O)c4cccc(F)c4)C3)nn2)n1 (stereo not given)	> 2 h
N#Cc1cccc(CN2CCOC[C@H](O)C2)c1	0.852 h
Cc1ccsc1-c1[nH]nc2ncc(-c3ccccc3)nc12	0.308 h
O=C(c1ccsc1)N1CCC(Oc2cccc(F)c2)C1 (stereo not given)	1.38 h
CCN1CCN(C(=O)C2Cn3cccc3C(=O)N2CC(C)C)CC1 (stereo not given)	> 2 h
Fc1cccc(-c2noc(-c3nc(-c4ccncc4)no3)n2)c1	0.44 h
N#Cc1cccc(CN2CC[C@H](c3nc4ccccc4[nH]3)C2)c1	> 2 h
Cc1nn2c(c1-c1ccccc1Oc1ccccc1)N(Cc1ccc(C(=O)O)cc1)CCC2	> 2 h
CN1c2cc(C(=O)Nc3ccc(C#N)cc3)ccc2C(=O)N2CCCCC21 (stereo not given)	> 2 h
COc1cccc(-c2cn3c(n2)N(C(=O)c2cccs2)CCC3)c1	> 2 h
CN(Cc1ccccc1)C1CCOc2ccccc21 (stereo not given)	0.127 h
N#Cc1cccc(-c2c(C(=O)N3CCOCC3)nc3sccn23)c1	> 2 h
Cc1ccc(-c2noc([C@@H]3Cc4nc[nH]c4CN3Cc3cccc(C#N)c3)n2)cc1	1.06 h
CN1CCC(OC2CCN(C(=O)c3cccc(F)c3)CC2)CC1	> 2 h
COCCNC(=O)c1nc2sccn2c1-c1cccc(C#N)c1	> 2 h

SMILES	half-life
COc1ccc(CN2CC(Oc3ccc(F)c(F)c3)C2)cc1	0.5 h
N#Cc1ccc(C(=O)N2CCCOCCNC(=O)CC2)cc1	> 2 h
Cc1cc(OC2CN(Cc3ccc(C#N)cc3)C2)ccc1F	0.73 h
N#Cc1cccc(-c2cn3c(n2)N(C(=O)c2cccs2)CCC3)c1	> 2 h
CN(Cc1cccc(F)c1)C1CCOc2ccccc21 (stereo not given)	0.143 h
CN(C)[C@@H]1CN(C(=O)c2ccc(C#N)cc2)C[C@H]1CO	> 2 h
Cc1nn2c(c1-c1ccccc1Oc1ccccc1)N(Cc1cccc(C#N)c1)CCC2	> 2 h
COc1cccc(CN2CC[C@H](c3nnc(-c4ccco4)o3)C2)c1	1.97 h
Cc1ccccc1-c1[nH]nc2ncc(-c3ccccc3C#N)nc12	> 2 h
CNC(=O)[C@@H]1CN(C(=O)c2cccc(C#N)c2)C[C@H]1COC	1.44 h
COCCOC1CCN(C(=O)Nc2ccccc2)CC1	> 2 h
CN(CC1CCOC1)C(=O)Nc1ccccc1 (stereo not given)	> 2 h
COc1cccc(CN2CC[C@H](c3nc4ccccc4[nH]3)C2)c1	> 2 h
Fc1cccc(-c2cnc(Nc3cncnc3)c3c2CCO3)c1	0.16 h
Fc1cccc(Nc2ncc(-c3cncnc3)c3c2OCC3)c1	> 2 h
CC(C)(C)c1coc([C@@H]2COCCN2Cc2ccc(C(=O)O)cc2)n1	1.88 h
O=c1c2nc(Nc3cccc(F)c3)ccc2ncn1-c1cccnc1	1.61 h
N#Cc1ccc(CN2CC(Oc3ccc(F)cc3F)C2)cc1	1.05 h
N#Cc1ccc(CN2CCC(N3Cc4cccn4C3=O)CC2)cc1	> 2 h
CN1CCN(C(=O)c2cc(-c3cccnc3)nc3c2cnn3C)CC1	> 2 h
COc1cccc(-c2cn3c(n2)N(C(=O)c2ccco2)CCC3)c1	0.993 h
Cc1ccc(NC(=O)c2nc3sccn3c2-c2cccc(C#N)c2)cc1	0.29 h
CCOCCOC1CCN(C(=O)Nc2ccccc2)CC1	> 2 h
COc1ccc(CN2CC(Oc3ccc(F)cc3F)C2)cc1	0.605 h
N#Cc1ccccc1CN1CCC2(CC1)CC(O)CCO2 (stereo not given)	1.34 h
O=C(O)c1ccc(-c2ncc3cnc(-c4cccc(F)c4)cn23)cc1	> 2 h
O=C(c1cccs1)N1CCC(Oc2cccc(F)c2)C1 (stereo not given)	0.29 h

SMILES	half-life
N#Cc1cccc(CN2CC[C@H](c3nnc(-c4ccco4)o3)C2)c1	> 2 h
Cc1noc(C)c1-c1cc(-c2cccc(F)c2)cn2cncc12	1.5 h
Cc1ccccc1-c1[nH]nc2ncc(-c3cccc(F)c3)nc12	0.817 h
N#Cc1ccc(CN2CCC3(CC2)CC(=O)c2ccccc2O3)cc1	> 2 h
CCOc1cc(=O)n2c(c1C(=O)Nc1ccc(C#N)cc1)CCCC2	1.69 h
O=C(Nc1cnc(-c2ccccc2)nc1)c1cccc(F)c1	0.867 h
COc1ccc(CN2CCC3(COc4ccccc4C(=O)N3)C2)cc1 (stereo not given)	0.578 h
COCCNC(=O)c1nc2sccn2c1-c1cccc(OC)c1	> 2 h
N#Cc1cccc(-c2cn3c(n2)N(C(=O)c2ccco2)CCC3)c1	0.612 h
CC(=O)N1CCC(Cc2ccc(C(=O)NC3CC3)cc2)CC1	1.33 h
O=C1COCCN1c1cc(-c2cccc(F)c2)cn2cncc12	> 2 h
O=C(O)c1ccc(CN2CC(COc3ccccc3)C3(C2)CN(c2ccccc2)C3)cc1 (stereo not given)	> 2 h
COc1ccc(CN2CC[C@H](c3nnc(C)o3)C2)cc1	> 2 h
COc1ccc(C(=O)N2CCC3(CCC3OC)CC2)cc1 (stereo not given)	1.17 h
N#Cc1ccc(CN2CCC3(COc4ccccc4C(=O)N3)C2)cc1 (stereo not given)	0.64 h
O=C(c1ccoc1)N1CCC(Oc2ccccc2)C1 (stereo not given)	> 2 h
O=C(O)c1ccc(CN2CCOC[C@H]2c2ncc(-c3ccc(F)cc3)[nH]2)cc1	> 2 h
COc1ccc(C(=O)N2C[C@@H](CO)[C@H](N(C)C)C2)cc1	> 2 h
Cc1cc2cc(-c3c(C)noc3C)nc(Nc3cccc(F)c3)c2o1	0.137 h
Fc1cccc(-c2cnc(Nc3cccnc3)c3c2CCO3)c1	> 2 h
CC1(c2ccccc2)N(Cc2ccccc2)C(=O)OC12CCN(Cc1ccc(C(=O)O)cc1)CC2 (stereo not given)	> 2 h
N#Cc1ccc(CN2CCC3(C2)NC(=O)c2ccccc2O3)cc1 (stereo not given)	> 2 h
Cn1ccc(NC(=O)c2ccc(-c3ncc4cnc(-c5cccc(F)c5)cn34)cc2)n1	0.553 h
COc1ccccc1CN1CCC2(CC1)CC(O)CCO2 (stereo not given)	> 2 h
CN1CCN(C(=O)c2ccc3nccn3c2)CC1	> 2 h
COC1CCC12CCN(C(=O)c1ccc(C#N)cc1)CC2 (stereo not given)	1.32 h
COc1ccc(OC2CN(Cc3ccc(C#N)cc3)C2)cc1	> 2 h

SMILES	half-life
CCOc1cc(=O)n2c(c1C(=O)Nc1ccc(S(N)(=O)=O)cc1)CCCC2	> 2 h
O=C(N1CCN(S(=O)(=O)c2cccc(F)c2)CC1)N1CC2CC(C1)[C@H]1CCCC(=O)N1C2 (stereo not given in full)	> 2 h
N#Cc1cccc(CN2CCOC[C@H]2c2ncc(-c3ccc(F)cc3)[nH]2)c1	1.58 h
CNC(=O)[C@@H]1CN(C(=O)c2cccc(OC)c2)C[C@H]1COC	> 2 h
CN1CCC(OC2CCN(C(=O)c3ccccc3)CC2)CC1	> 2 h
N#Cc1ccc(CN2CC(N3CCc4ccccc43)C2)cc1	1.61 h
COc1ccc(CN2CC(Oc3ccc(OC)cc3)C2)cc1	> 2 h
CN(CC1CCOC1)C(=O)Nc1cccc(F)c1 (stereo not given)	> 2 h
N#Cc1ccc(CN2CC(Oc3ccc(F)c(F)c3)C2)cc1	1.19 h
COc1cccc(-c2cn3c(n2)N(C(=O)c2ccoc2)CCC3)c1	1.86 h
CCN1CCN(C(=O)c2cc(-c3ccccc3OC)c3nncn3n2)CC1	> 2 h
COc1ccc(CN2CCC3(CC2)CC(=O)c2ccccc2O3)cc1	> 2 h
Fc1cccc(Nc2ncc(-c3cccnc3)c3c2OCC3)c1	1.28 h
CCN1CCN(C(=O)Cc2cccn2-c2ccc(F)cc2)CC1	> 2 h
O=c1cc(N2CCOCC2)oc2c(-c3cccc(F)c3)nccc12	> 2 h
Cc1nnc([C@H]2CCN(Cc3ccc(C#N)cc3)C2)o1	> 2 h
O=c1c2nc(Nc3cccc(F)c3)ccc2ncn1-c1ccccc1	1.57 h
O=C(c1ccsc1)N1CCC(Oc2ccccc2)C1 (stereo not given)	0.667 h
O=C(N1CCN([S+](=O)([O-])c2ccccc2)CC1)N1CC2CC(C1)[C@H]1CCCC(=O)N1C2 (stereo not given in full)	> 2 h
O=C(c1cccc(F)c1)N1CCC(Oc2cccnc2)C1 (stereo not given)	> 2 h
O=C(c1ccc(-c2ncc3cnc(-c4cccc(F)c4)cn23)cc1)N1CCc2cccnc21	0.288 h
Fc1cccc(-c2cnc([C@@H]3COCCN3Cc3cnc[nH]3)[nH]2)c1	0.988 h
O=C(c1ccncc1)N1CCC(Oc2cccc(F)c2)C1 (stereo not given)	> 2 h
COC(=O)[C@@H]1Cc2ncn(C)c2CN1C(=O)c1ccc(C#N)cc1	> 2 h
